{
  "source": "patent US4354039A",
  "about": "“Chlorocitric acids” (Hoffmann-La Roche Inc., priority 1981, dated 1982)",
  "assay_type_in_all_cases": "in vivo, Charles River female rats",
  "key": {"[1]": {"test": "Body composition of meal-fed rats, 16 day study (Example 20)", "conditions": "in words", "experimental": "Two month old Charles River female rats (Charles River Breeding Laboratories, Wilmington, Mass.) were individually housed in wire-bottomedcages in a temperature-regulated (22° C.) light-controlled room (12 hr light, 6 a.m. to 6 p.m. and 12 hr dark, 6 p.m. to 6 a.m.). […] (1) control, (2) (-)-threo-chlorocitric acid (1.0 mmoles/kg, 227 mg/kg) administered by oral intubation 30 min before the 3 hr meal, and (3) (-)-threo-chlorocitric acid (1.1 mmoles/kg, 250 mg/kg as a dietary admixture for the 3 hr meal. Treatment was continued for 16 days. After 16 days of treatment, rats were killed by decapitation and blood was removed. […] C. Sullivan, et al, Am. J. Clinical Nutrition, 30 767 (1977). […] Total carcass lipid data are expressed in grams and percentages of carcass weight. An aliquot of saponified carcass extract was neutralized and total carcass nitrogen was determined using the Kjeldahl procedure described in \"Hawks\" Physiological Chemistry,\" B. L. Oser, ed., McGraw Book Co., New York, N.Y., 1965, page 1214. Carcass protein data are expressed in grams and percentages of carcass weight."}, "[2]": {"test": "Anorectic activities of stereoisomers, 3-day food consumption and body weight gain (Example 16)", "conditions": "1.32 mmoles/kg oral, 3 days", "experimental": "Charles River female rats (Charles River Breeding Laboratories, Wilmington, Mass.), weighing 196 to 210 g, were individually housed in wire-bottomed cages in a temperature-regulated (22° C.) light-controlled room (12 hr light, 6 a.m. to 6 p.m. and 12 hr dark, 6 p.m. to 6 a.m.). Animals were fasted 48 hr, then meal-fed a 70% glucose diet from 8 to 11 a.m. Following 5 to 12 days alimentation on the meal-feeding regimen, rats were dosed with the appropriate compounds orally by intubation 1/2 hr before the 3 hr meal for 3 days. The total food consumption and body weight gained during the 3 day period were determined. The control group consisted of 16 rats, while the experimental group consists of 8 rats."}, "[3]": {"test": "Body weight and food intake in meal-fed rats, oral, 17 day study (Example 21)", "conditions": "for CBWG, cumulative body weight gain / CFC, cumulative food consumption / FBW, final body weight: 17 days; for IBW, initial body weight: baseline", "experimental": "Two month old Charles River female rats (Charles River Breeding Laboratories, Wilmington, Mass.) were individually housed in wire-bottomedcages in a temperature-regulated (22° C.) light-controlled room (12 hr light, 6 a.m. to 6 p.m. and 12 hr dark, 6 p.m. to 6 a.m.). […] On the 8th day, the animals were administered water or (-)-threo-chlorocitric acid at the indicated concentration by oral intubation 30 min before the 3 hr meal. Treatment was continued for 17 days. Food cups were weighed immediately after the meal. The amount of body weight gained and food consumed during the period was determined."}, "[4]": {"conditions": "Chow, 0.25 mmoles (57 mg)/kg oral"}, "[5]": {"conditions": "Chow, 0.50 mmoles (114 mg)/kg oral"}, "[6]": {"conditions": "Chow, 1.00 mmoles (227 mg)/kg oral"}},
  "data": [
    {"smiles": "O=C(O)C[C@@](O)(C(=O)O)[C@@H](Cl)C(=O)O", "note": "[(-)-threo-Chlorocitric acid]", "values": [
      {"measurement": "weight loss, carcass analysis", "setting": "[1]", "result": "weight loss was due to reduction in body lipids"},
      {"measurement": "3-Day Body Weight Gain, % of initial body weight", "setting": "[2]", "result": "-11.0 % of initial body weight"},
      {"measurement": "3-Day Food Consumption, % of control", "setting": "[2]", "result": "37 % of control"},
      {"measurement": "CBWG, cumulative body weight gain", "setting": "[3]; [4]", "result": "-1 ± 4", "unit": "g"},
      {"measurement": "CFC, cumulative food consumption", "setting": "[3]; [4]", "result": "186 ± 9", "unit": "g"},
      {"measurement": "FBW, final body weight", "setting": "[3]; [4]", "result": "213 ± 7", "unit": "g"},
      {"measurement": "IBW, initial body weight", "setting": "[3]; [4]", "result": "214 ± 7", "unit": "g"},
      {"measurement": "CBWG, cumulative body weight gain", "setting": "[3]; [5]", "result": "-32 ± 6", "unit": "g"},
      {"measurement": "CFC, cumulative food consumption", "setting": "[3]; [5]", "result": "165 ± 9", "unit": "g"},
      {"measurement": "FBW, final body weight", "setting": "[3]; [5]", "result": "177 ± 6", "unit": "g"},
      {"measurement": "IBW, initial body weight", "setting": "[3]; [5]", "result": "209 ± 5", "unit": "g"},
      {"measurement": "CBWG, cumulative body weight gain", "setting": "[3]; [6]", "result": "-30 ± 7", "unit": "g"},
      {"measurement": "CFC, cumulative food consumption", "setting": "[3]; [6]", "result": "130 ± 13", "unit": "g"},
      {"measurement": "FBW, final body weight", "setting": "[3]; [6]", "result": "176 ± 11", "unit": "g"},
      {"measurement": "IBW, initial body weight", "setting": "[3]; [6]", "result": "207 ± 3", "unit": "g"},
      {"measurement": "IBW, initial body weight", "setting": "[3]; G-70 diet, 0.25 mmoles (57 mg)/kg oral", "result": "198 ± 4", "unit": "g"},
      {"measurement": "IBW, initial body weight", "setting": "[3]; G-70 diet, 0.50 mmoles (114 mg)/kg oral", "result": "195 ± 4", "unit": "g"},
      {"measurement": "IBW, initial body weight", "setting": "[3]; G-70 diet, 1.00 mmoles (227 mg)/kg oral", "result": "198 ± 3", "unit": "g"}
    ]}
  ]
}
